{"source": "paper PMC10372009", "about": "“Molecular basis of GDF15 induction and suppression by drugs in cardiomyocytes and cancer cells toward precision medicine” (Scientific Reports, 2023)", "type_in_all_cases": "cell-based, human", "key": {"[1]": {"test_system": "GDF15", "assay": "GDF15 secretion (ELISA) by hiPSC-CMs upon cardiotoxic drug treatment", "conditions": "48 h; for fold increase of media concentration of GDF15: sublethal and highest (10 µM) concentrations, normalized by DMSO-only control; for GDF15 protein concentration: 1 µM drug", "source_text": "As many anticancer drugs are cardiotoxic and GDF15 is a well-known biomarker for heart failure, we employed a human induced pluripotent stem cell-derived cardiomyocytes (hiPSC-CMs) model to investigate the effect of drug-induced cardiotoxicity on GDF15 expression in host tissues. To adequately replicate cardiotoxicity using this model, we selected drugs whose cardiotoxic effect in vivo is based on cytotoxicity to cardiomyocytes.\nFigure 2 Effect of cardiotoxic drugs on hiPSC-CMs viability and GDF15 secretion and modes of action of applied drugs. (A) hiPSC-CMs viability after 48 h treatment with 20 cardiotoxic drugs. (B) Fold-change of GDF15 expression upon 48 h treatment with 20 cardiotoxic drugs and their reported modes of action. GDF15 expression upon treatment with 10 µM, sublethal drug concentrations and maximal GDF15 induction (from concentration series depicted in (C)). Mean fold-change of 4 biological replicates with a 95% confidence interval were normalized by DMSO-only control. (C) Drug-induced GDF15 expression for different drug concentrations. Fold-change of GDF15 protein concentration upon 48 h treatment with ten cardiotoxic drugs (marked with * in A and B).\n(§1) Cardiotoxic drug (SCREEN-WELL® Cardiotoxicity library, BML-2850, ENZO) library was prepared by serial dilution of 10 mM stocks in DMSO to 9 different concentrations ranging from 0.001 to 10 mM, which were further diluted into assay plates to final concentrations ranging from 0.001 to 10 µM. […] The final concentration of DMSO for hiPSC-CMs assay was 0.1%. To investigate the influence of BET inhibitor treatment on doxorubicin induced GDF15 mRNA expression, hiPSC-CMs were pre-treated with 20 nM or 200 nM doxorubicin for 48 h and kept in medium without compound for 24 h before 24 h treatment with either 100 nM BI 894999 or 500 nM OTX015. […] Cancer cell lines were treated with 10 nM, 35 nM or 100 nM of BI 894999 for 4 h or 24 h (Supplementary Table S3).\n(§2) For GDF15 mRNA quantification, total RNA was isolated from the cells using an RNeasy kit (Qiagen, 74106) to synthesize cDNA using a Taqman Reverse Transcription kit (Applied Biosystems, N8080234). Quantitative real-time PCR analysis was performed using QuantiNova SYBR Green PCR Kit (Qiagen, 208052) on a CFX96 Real-Time System (Bio-Rad) under the following amplification conditions: 95 °C for 2 min followed by 40 cycles of 95 °C for 5 s and 60 °C for 10 s. The primer sequences are GDF15-F: 5′-[…]-3′, GDF15-R: 5′-[…]-3′, ACTB-F: 5′-[…]-3′ and ACTB-R: 5′-[…]-3′. PCR data were analyzed using a modified relative expression software tool (REST) and the expression level of GDF15 gene was normalized to that of β-actin. For secreted GDF15 protein quantification, cell culture medium was collected after drug treatment and stored at − 20 °C until ELISA was performed using Human GDF-15 ELISA Kit (Abcam, ab155432) according to the manufacturer’s instruction. Resulting GDF15 concentrations were normalized to non-treated control and respective relative cell viability."}, "[2]": {"test_system": "GDF15", "assay": "GDF15 gene expression of NCI-60 cancer cell lines treated with 15 anticancer drugs (public data, linear regression)", "conditions": "data ref 34; for induction of GDF15 on average: NCI-60 cancer cell lines; for ratio of responsive cell lines (GDF15 induction): all NCI-60 cell lines, responsive: slope > 0.02 and R-squared > 0.5 within 24 h", "source_text": "To get further insights into how chemotherapy influences GDF15 expression in cancer, we analyzed public gene expression data of NCI-60 cancer cell lines treated with 15 different anticancer drugs. We used linear regression to quantify the cell line’s drug-specific responsiveness regarding GDF15 induction and categorized the cell lines as “responsive” or “resistant”. Comparing the number of responsive cell lines per drug, we found the ratio of responsive cell lines ranged from 4% for sirolimus to 71% for sorafenib (Supplementary Figure S2). Drugs with DNA damaging properties tended to induce GDF15 more strongly than drugs with other modes of action.\nFigure 3 NCI-60 cell line clustering. (A) Hierarchically clustered correlation matrix of GDF15 gene expression levels by NCI-60 cell lines upon 15 drug treatments. Pearson correlation coefficients were calculated evaluating linear regression slope of GDF15 expression within the first 24 h of drug treatment. Clustering of cell lines was performed using Weighted Pair Group Method with Arithmetic Mean (WPGMA) algorithm based on Pearson correlation coefficients. Four cell line clusters were identified. Tissue types of cell lines are color coded. (B) Drug-specific fraction of responsive NCI-60 cell lines in each identified cell line cluster for 15 anticancer drugs. Responsiveness was assumed when linear regression slope of GDF15 expression within 24 h of drug treatment was > 0.02 and R-squared > 0.5. (C) Predicted basally activated or inhibited pathways for the cell line cluster based on identified differences in gene expression.\nWe obtained basal gene expression values and mutational status of all cancer cell lines from our in-house cancer cell line database. Gene expression data of NCI-60 after compound treatment, basal protein expression, drug sensitivity data, gene dependency data, metabolite expression and compound specifications such as IC50 values and modes of action were collected from different studies and data bases, as described in the supplementary information.\nEach NCI-60 cell line was assigned to an array containing 15 drug-specific linear regression slopes of GDF15 mean fold-change. We calculated the Pearson correlation coefficient for every cell line pair to build a 60 × 60 correlation matrix. For agglomerative hierarchical clustering, we applied a “Weighted Pair Group Method with Arithmetic Mean” (WPGMA) algorithm to the resulting correlation matrix. The identified clusters represent groups of cell lines that are closely positioned to each other in this 15-dimensional data set and therefore have more similarities regarding GDF15 expression upon treatment with the 15 drugs compared to cell lines of other clusters.\nSupplementary Materials and Methods\nData collection of cancer cell line properties\nGene expression data of NCI-60 upon treatment with 15 anticancer compounds were collected from NCI-\n60 Transcriptional Pharmacodynamics Workbench 11. […]"}, "[3]": {"test_system": "GDF15", "assay": "Doxorubicin-induced GDF15 secretion in hiPSC-CMs, simultaneous treatment with BET inhibitors (ELISA)", "conditions": "simultaneous 100 nM doxorubicin and 0.1 to 1000 nM BET inhibitor, 48 h", "source_text": "(§3) Host cells are known to contribute to elevated GDF15 levels in cachexia patients when exposed to drug toxicity. […] We plotted GDF15 fold-changes against the respective reported half maximal inhibitory concentrations (IC50) of each BET inhibitor for BRD2, BRD3 and BRD4, whenever available. GDF15 fold-change thereby meant the ratio of GDF15 expression induced by doxorubicin only and doxorubicin combined with BET inhibitor normalized to cell viability.\nas §1, §2\nSupplementary Figure S6. (A) Fold-change of GDF15 secretion by hiPSC-CMs after simultaneous\ntreatment with doxorubicin and seven BET Inhibitors for 48 h. Normalized to cell viability and non-treated […]"}, "[4]": {"test_system": "GDF15", "assay": "Doxorubicin-induced GDF15 mRNA expression in hiPSC-CMs, successive treatment with BET inhibitors (qPCR)", "source_text": "as §3, §1\nas §2, with “β-actin.” for “β-actin. For secreted GDF15 protein quantification, cell culture medium was collected after drug treatment and stored at − 20 °C until ELISA was performed using Human GDF-15 ELISA Kit (Abcam, ab155432) according to the manufacturer’s instruction. Resulting GDF15 concentrations were normalized to non-treated control and respective relative cell viability.”"}}, "data": [{"smiles": "COc1cc(NS(C)(=O)=O)ccc1Nc1c2ccccc2nc2ccccc12", "note": "[Amsacrine]", "values": [{"measurement": "fold increase of media concentration of GDF15", "setting": "[1]", "result": "more than threefold"}]}, {"smiles": "CC(C)C[C@H](NC(=O)[C@H](Cc1ccccc1)NC(=O)c1cnccn1)B(O)O", "note": "[Bortezomib]", "values": [{"measurement": "fraction of responsive cell lines in cluster B", "setting": "[2]; NCI-60 cluster B", "result": "all"}]}, {"smiles": "Cc1sc2c(c1C)C(c1ccc(Cl)cc1)=N[C@@H](CC(N)=O)c1nnc(C)n1-2", "note": "[CPI203]", "values": [{"measurement": "effect on doxorubicin-induced GDF15 overexpression (secretion)", "setting": "[3]", "result": "suppressed"}]}, {"smiles": "CC[C@@]1(O)C(=O)OCc2c1cc1n(c2=O)Cc2cc3ccccc3nc2-1", "note": "[Camptothecin]", "values": [{"measurement": "fold increase of media concentration of GDF15", "setting": "[1]", "result": "more than threefold"}]}, {"smiles": "COc1cccc2c1C(=O)c1c(O)c3c(c(O)c1C2=O)C[C@@](O)(C(C)=O)C[C@@H]3O[C@H]1C[C@H](N)[C@H](O)[C@H](C)O1", "note": "[Daunorubicin]", "values": [{"measurement": "GDF15 protein concentration", "setting": "[1]", "result": "exceeded the upper limit of quantification"}]}, {"smiles": "COc1cccc2c1C(=O)c1c(O)c3c(c(O)c1C2=O)C[C@@](O)(C(=O)CO)C[C@@H]3O[C@H]1C[C@H](N)[C@H](O)[C@H](C)O1", "note": "[Doxorubicin]", "values": [{"measurement": "fold increase of media concentration of GDF15", "setting": "[1]", "result": "more than threefold"}, {"measurement": "fraction of responsive cell lines in cluster C", "setting": "[2]; NCI-60 cluster C", "result": 63.6, "unit": "%"}, {"measurement": "increase of GDF15 expression on RNA level", "setting": "[4]; doxorubicin treatment (20 or 200 nM)", "result": "up to sevenfold"}]}, {"smiles": "COc1cc([C@@H]2c3cc4c(cc3[C@@H](O[C@@H]3O[C@@H]5CO[C@@H](C)O[C@H]5[C@H](O)[C@H]3O)[C@H]3COC(=O)[C@H]23)OCO4)cc(OC)c1O", "note": "[Etoposide]", "values": [{"measurement": "fold increase of media concentration of GDF15", "setting": "[1]", "result": "more than threefold"}]}, {"smiles": "COc1cc2c(cc1-c1c(C)noc1C)ncc1[nH]c(=O)n([C@H](C)c3ccccn3)c12", "note": "[I-BET151]", "values": [{"measurement": "effect on doxorubicin-induced GDF15 overexpression (secretion)", "setting": "[3]", "result": "suppressed"}]}, {"smiles": "CC(=O)[C@]1(O)Cc2c(O)c3c(c(O)c2[C@@H](O[C@H]2C[C@H](N)[C@H](O)[C@H](C)O2)C1)C(=O)c1ccccc1C3=O", "note": "[Idarubicin]", "values": [{"measurement": "GDF15 protein concentration", "setting": "[1]", "result": "exceeded the upper limit of quantification"}, {"measurement": "fold increase of media concentration of GDF15", "setting": "[1]", "result": "more than threefold"}]}, {"smiles": "Cc1sc2c(c1C)C(c1ccc(Cl)cc1)=N[C@@H](CC(=O)Nc1ccc(O)cc1)c1nnc(C)n1-2", "note": "[OTX015]", "values": [{"measurement": "effect on doxorubicin-induced GDF15 overexpression (mRNA)", "setting": "[4]; BET inhibitor given subsequently to doxorubicin", "result": "suppressed"}, {"measurement": "effect on doxorubicin-induced GDF15 overexpression (secretion)", "setting": "[3]", "result": "suppressed"}]}, {"smiles": "COc1ccccc1S(=O)(=O)Nc1ccc2c(c1)CN(C)C(=O)N2", "note": "[PFI-1]", "values": [{"measurement": "effect on doxorubicin-induced GDF15 overexpression (secretion)", "setting": "[3]", "result": "suppressed"}]}, {"smiles": "CCN(CC)CCNC(=O)c1c(C)[nH]c(/C=C2\\C(=O)Nc3ccc(F)cc32)c1C", "note": "[Sunitinib]", "values": [{"measurement": "induction of GDF15 on average", "setting": "[2]", "result": "did not lead to notable GDF15 regulation"}]}, {"smiles": "Nc1ncn([C@@H]2O[C@H](CO)[C@@H](O)[C@H]2O)c(=O)n1", "note": "[azacytidine]", "values": [{"measurement": "fraction of responsive cell lines in cluster D", "setting": "[2]; NCI-60 cluster D", "result": "all"}]}, {"smiles": "CO[C@H]1C[C@@H]2CC[C@@H](C)[C@@](O)(O2)C(=O)C(=O)N2CCCC[C@H]2C(=O)O[C@H]([C@H](C)C[C@@H]2CC[C@@H](O)[C@H](OC)C2)CC(=O)[C@H](C)/C=C(\\C)[C@@H](O)[C@@H](OC)C(=O)[C@H](C)C[C@H](C)/C=C/C=C/C=C/1C", "note": "[sirolimus]", "values": [{"measurement": "ratio of responsive cell lines (GDF15 induction)", "setting": "[2]", "result": 4, "unit": "%"}]}, {"smiles": "CNC(=O)c1cc(Oc2ccc(NC(=O)Nc3ccc(Cl)c(C(F)(F)F)c3)cc2)ccn1", "note": "[sorafenib]", "values": [{"measurement": "induction of GDF15 on average", "setting": "[2]", "result": "threefold"}, {"measurement": "fraction of responsive cell lines in cluster A", "setting": "[2]; NCI-60 cluster A", "result": "all"}, {"measurement": "ratio of responsive cell lines (GDF15 induction)", "setting": "[2]", "result": 71, "unit": "%"}]}]}
